In paper PMC5851651, “Population-specific design of de-immunized protein biotherapeutics” (PLoS Computational Biology, 2018):

Tests used:
DRB1*07:01 = DRB1*07:01 (Homo sapiens, UniProt P01903+P01911, A100R/A102G/A103Q/D57E/D86V/E43K/F76Y/K127E/L162R/M171V/P40G/Q125H/Q99D/R33Q/R42Y/R54Q/S133A/S66F/T210M/V115G/Y107V/Y59L/Y89S); test: REVEAL HLA-Peptide binding assay (ProImmune); details: score relative to high-affinity control peptide, percentage of the control signal
Method: (§1) To test the designs, we synthesized twenty overlapping 15-mer peptides containing the introduced mutations and their wild-type counterparts. The peptides maximally covered the predicted epitopes around the mutations of all designed constructs that contained one and two mutations (Supplementary S2 Table). The affinity of these peptides to the three HLA alleles was measured at time zero and after 24 hours (Methods, Supplementary S3 and S4 Tables). We linearly combined the measured relative affinity scores across HLA alleles weighted by their allele frequencies for each peptide respectively to produce a score that approximates the overall immunogenicity (Fig 5A). Results are presented for measurements taken at time point zero. […] Overall, the measured and predicted immunogenicity of the tested peptides correlated well with r = 0.76 (CI95 = [0.48, 0.91], t = 4.885, df = 17, p-value = 1.4e-4; Fig 5A). Next, we compared the predicted and measured gain or loss in immunogenicity for the whole region by reconstructing the targeted region using overlapping peptides. The measured relative scores were linearly combined (as previously) and then normalized to the number of overlapping peptides used in the reconstruction (Fig 5B). The difference in the measured scores between the wild type and mutant regions can be thought of as a proxy for gain or loss in immunogenicity and correlated well to the predicted changes (r = 0.86, CI95 = [0.40, 0.97], t = 4.136, df = 6, p-value = 6.1e-3; Fig 5B).
(§2) In order to experimentally verify our in silico predictions for Factor VIII, we utilized the commercial REVEAL HLA-Peptide binding assay of ProImmune (www.proimmune.com). Peptides were synthesized using the PEPscreen custom library synthesis method, yielding high purity peptides for experimental analysis. HLA-peptide binding was assessed for the three HLA-DRB1 alleles used in this study (DRB1*15:01, DRB1*03:01 and DRB1*07:01). In short, the method compares the affinity of the studied peptide to the affinity of a high-affinity control peptide. Each peptide is then scored for binding to a certain HLA molecule relative to the score of the control peptide and reported as the percentage of the signal generated by the control peptide.

DRB1*15:01 = target: T1, DRB1*15:01 (Homo sapiens, UniProt P01903+P01911); test: REVEAL HLA-Peptide binding assay (ProImmune); details: score relative to high-affinity control peptide, percentage of the control signal
T1 construct: purchased ProImmune
Method: as §1, §2

DRB1*03:01 = target: T2, DRB1*03:01 (Homo sapiens, UniProt P01903+P01911, A100K/A102G/A103R/A169T/F55Y/I96L/K41T/L162R/M171V/P40S/Q125H/Q178H/Q39Y/R42S/S66N/T106N/T262R/W38E/Y61H); test: REVEAL HLA-Peptide binding assay (ProImmune); details: score relative to high-affinity control peptide, percentage of the control signal
T2 construct: purchased ProImmune
Method: as §1, §2

[1] = test system: DRB1*15:01, DRB1*03:01 and DRB1*07:01; test: Experimental immunogenicity score: relative HLA binding combined across alleles, weighted by allele frequency; parameters: species or system human; key: allele-frequency-weighted sum of binding, % of control peptide signal; details: for Difference to WT (Experimental Score): per peptide against wild-type counterpart; for Experimental Score: per peptide, weights DRB1*15:01 0.162, DRB1*07:01 0.146, DRB1*03:01 0.143
Method: as §1
Fig 5 (A) Correlation of experimental and predicted immunogenicity of each peptide. The experimental immunogenicity score of a peptide is defined as the linear combination of the individual experimentally determined relative HLA binding affinity of each HLA allele h ∈ H weighted by the HLA allele frequency. (B) Correlation of experimental and predicted immunogenicity of the whole redesigned region. The summarized immunogenicity score of the whole region is the linear combination of the overlapping peptides used to reconstruct the region, normalized by total number of peptides used. The predicted immunogenicity scores per peptide were computed according to our immunogenicity objective function. The red lines are a fitted linear regression and the red tubes represent their 95-confidence interval.
as §2

[2] = time 0 (H0), listed as VNSLDPPLFTRYLRI
[3] = time 0 (H0), listed as YTRYLRIHPQSWEHQ
[4] = time 0 (H0), listed as LRIHPQSWVHQIALRM
[5] = time 0 (H0), listed as LRIHPQSWVHHIALRM

Row | Sequence | DRB1*07:01 (DRB1*07:01; after 24 hours (H24)) [%] | DRB1*07:01 (DRB1*07:01; time 0 (H0)) [%] | DRB1*15:01 (DRB1*15:01; after 24 hours (H24)) [%] | DRB1*15:01 (DRB1*15:01; time 0 (H0)) [%] | DRB1*03:01 (DRB1*03:01; after 24 hours (H24)) [%] | DRB1*03:01 (DRB1*03:01; time 0 (H0)) [%] | Difference to WT (Experimental Score) ([1]; after 24 hours (H24)) | Experimental Score ([1]; after 24 hours (H24)) | Difference to WT (Experimental Score) ([1]; time 0 (H0)) | Experimental Score ([1]; time 0 (H0)) | also measured
1 | VNSLDPPLFTRYLRI [Design M-1, peptide covering L2321F] | 0.497 | 6.490 | 0.000 | 0.427 | 0.165 | 0.165 | 0.042 | 0.096 | -0.356 | 1.040 | DRB1*07:01 (DRB1*07:01; [2]): 6.5%; DRB1*15:01 (DRB1*15:01; [2]): 0.4%; DRB1*03:01 (DRB1*03:01; [2]): 0.2%
2 | YTRYLRIHPQSWEHQ [Design M-12, peptide covering L2321Y, V2333E] | 40.700 | 59.728 | 0.700 | 3.876 | 0.200 | 0.155 | -7.303 | 6.084 | -8.351 | 9.370 | DRB1*07:01 (DRB1*07:01; [3]): 59.7%; DRB1*15:01 (DRB1*15:01; [3]): 3.9%; DRB1*03:01 (DRB1*03:01; [3]): 0.2%
3 | LRIHPQSWVHHIALRM [Design M-5, peptide covering Q2335H] | 40.700 | 65.265 | 20.400 | 47.784 | 0.000 | 0.555 | 0.870 | 9.247 | 0.779 | 17.349 | DRB1*07:01 (DRB1*07:01; [5]): 65.3%; DRB1*15:01 (DRB1*15:01; [5]): 47.8%; DRB1*03:01 (DRB1*03:01; [5]): 0.6%

Continued, in another order:

Row | DRB1*07:01 (DRB1*07:01; after 24 hours (H24)) [%] | DRB1*07:01 (DRB1*07:01; time 0 (H0)) [%] | DRB1*15:01 (DRB1*15:01; after 24 hours (H24)) [%] | DRB1*15:01 (DRB1*15:01; time 0 (H0)) [%] | DRB1*03:01 (DRB1*03:01; after 24 hours (H24)) [%] | DRB1*03:01 (DRB1*03:01; time 0 (H0)) [%] | Sequence | Difference to WT (Experimental Score) ([1]; after 24 hours (H24)) | Experimental Score ([1]; after 24 hours (H24)) | Difference to WT (Experimental Score) ([1]; time 0 (H0)) | Experimental Score ([1]; time 0 (H0)) | also measured
4 | 38.252 | 56.788 | 17.219 | 50.927 | 0.021 | 0.200 | LRIHPQSWVHQIALRM [WT-4, wild-type peptide of Factor VIII C2 domain, reference compound] |  | 8.377 |  | 16.570 | DRB1*07:01 (DRB1*07:01; [4]): 56.8%; DRB1*15:01 (DRB1*15:01; [4]): 50.9%; DRB1*03:01 (DRB1*03:01; [4]): 0.2%
5 | 35.522 | 40.243 | 0.00277 | 5.029 | 0.000 | 0.226 | RIHPQSWVHQIALRM [WT-2, wild-type peptide of Factor VIII C2 domain, reference compound] |  | 5.187 |  | 6.723 | 
